In the supplement of paper PMC11579375:

How the values were obtained:
Experiment in all cases: area under the viability dose-response curve (AUC) (AUC (arbitrary units, max 500 = no viability loss)); higher = less sensitive (higher viability)
Conditions in all cases: exposure time: 120 h; concentration range: 0.1 nM - 10 µM, 6 doses
27F1 = test system: 27F1 (fetal-I hepatoblastoma organoid with intermediate liver markers)
Experimental: (§1)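 Patient-derived hepatoblastoma tumor organoids (about 50 organoids per well, 384-well plates, medium with 5% BME) were treated with the PMC pediatric cancer drug library. Each drug was tested in duplicate at 6 concentrations (0.1 nM to 10 µM, 10-fold steps).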

135F2 = test system: 135F2 (fetal-II hepatoblastoma organoid with high liver markers)
Experimental: as §1

22E = test system: 22E (embryonal-type hepatoblastoma organoid)
Experimental: as §1

3E = test system: 3E (embryonal-type hepatoblastoma organoid)
Experimental: as §1

8F1 = test system: 8F1 (fetal-I hepatoblastoma organoid with intermediate liver markers)
Experimental: as §1

96F1 = test system: 96F1 (fetal-I hepatoblastoma organoid with intermediate liver markers)
Experimental: as §1

13E = test system: 13E (embryonal-type hepatoblastoma organoid)
Experimental: as §1

17F1 = test system: 17F1 (fetal-I hepatoblastoma organoid with intermediate liver markers)
Experimental: as §1

10F2 = test system: 10F2 (fetal-II hepatoblastoma organoid with high liver markers)
Experimental: as §1

13F2 = test system: 13F2 (fetal-II hepatoblastoma organoid with high liver markers)
Experimental: as §1

17E = test system: 17E (embryonal-type hepatoblastoma organoid)
Experimental: as §1

| Compound | area under the viability dose-response curve (27F1) | area under the viability dose-response curve (135F2) | area under the viability dose-response curve (22E) | area under the viability dose-response curve (3E) | area under the viability dose-response curve (8F1) | area under the viability dose-response curve (96F1) | area under the viability dose-response curve (13E) | area under the viability dose-response curve (17F1) | area under the viability dose-response curve (10F2) | area under the viability dose-response curve (13F2) | area under the viability dose-response curve (17E) |
| --- | --- | --- | --- | --- | --- | --- | --- | --- | --- | --- | --- |
| CC(C)(CN1C(=O)C(Cl)=C(Cl)C1=O)CN1C(=O)C(Cl)=C(Cl)C1=O | > 500 | 497 | 427 | > 500 | > 500 | > 500 |  |  |  |  |  |
| CC(C)(O)c1cc(Nc2cc(Oc3cn(C4CC4)nc3C3CCOCC3)ccn2)ccn1 | > 500 | > 500 |  | > 500 | 499 | > 500 |  |  |  |  |  |
| O=P1(N(CCCl)CCCl)NC(OO)CCO1 (centres undefined) [4-Hydroperoxy cyclophosphamide (Cyclophosphamide)] |  |  |  |  |  |  | > 500 | > 500 | 465 | > 500 | > 500 |
| O=c1[nH]c(=O)n([C@@H]2O[C@H](CO)[C@@H](O)[C@H]2O)cc1F [5-Fluorouridine] | 364 | 303 | 420 | 319 | 447 | 333 |  |  |  |  |  |
| Cc1sc2c(c1C)C(c1ccc(Cl)cc1)=N[C@@H](CC(=O)NCCCN1CCN(C)CC1)c1nnc(C)n1-2 [(S)-JQ-35] | 447 | 388 | 410 | 309 | 345 | 496 |  |  |  |  |  |
| COCC1(CO)C(=O)C2CCN1CC2 (centres undefined) [APR-246] | 462 | 495 |  | > 500 | 480 | 499 | > 500 | 497 | > 500 | 487 | 494 |
| N[C@@H]1CCCN(c2c(/C=C3\SC(=O)NC3=O)cccc2-c2ccccc2)C1 [AZD1208] | 471 | 487 |  | 430 | > 500 | > 500 |  |  |  |  |  |
| CC(C)n1c(=O)n(C)c2cnc3cc(F)c(-c4ccc(OCCCN5CCCCC5)nc4)cc3c21 [AZD1390] | > 500 | 440 | > 500 | 491 | 486 | 471 |  |  |  |  |  |
| N#CC1(c2ccc(NC(=O)c3cccnc3NCc3ccncc3)cc2)CCCC1 [Apatinib] | > 500 | 470 | 438 | 491 | 498 | 481 | 497 |  | 490 | 484 | 476 |
| Cn1cc(-c2cc3c(N4CCN(c5ncc([C@@](C)(N)c6ccc(F)cc6)cn5)CC4)ncnn3c2)cn1 [Avapritinib] | 473 | 437 | 433 | 455 | 478 | 452 |  |  |  |  |  |
| CNC(=O)c1ccccc1Sc1ccc2c(/C=C/c3ccccn3)n[nH]c2c1 [Axitinib] | 478 | 463 |  | 421 | 495 | 480 | 427 | 499 | 411 | 457 | 438 |
| CNCc1ccccc1-c1csc([C@@H](C)Nc2nc(C)nc3cc(OC)c(OC)cc23)c1 [BAY-293] | 488 | 446 |  | 458 | > 500 | 461 |  |  |  |  |  |
| COc1cc2nc(C)nc(N[C@H](C)c3cc(N)cc(C(F)(F)F)c3)c2cc1O[C@H]1CCOC1 [BI-3406] | 481 | 472 |  | > 500 | > 500 | 413 |  |  |  |  |  |
| CN(C)CCNC(=O)c1cccn2c(=O)c3cc4ccccc4cc3nc12 [BMH-21] | 434 | 416 | 466 | 430 | 408 | 445 |  |  |  |  |  |
| O=C(O)C1(C(=O)O)CCC1.[NH2-].[NH2-].[Pt+2] [Carboplatin] | 487 | 494 | > 500 | 478 | 433 | 476 |  | 494 | 470 | 462 | 491 |
| COc1c(OCCCN2CCOCC2)ccc2c1N=C(NC(=O)c1cnc(N)nc1)N1CCN=C21 [Copanlisib] | 485 | 315 | 300 | > 500 | 390 | 352 |  |  |  |  |  |
| NC(=O)/C(=C/n1cnc(-c2cc(C(F)(F)F)cc(C(F)(F)F)c2)n1)c1cncnc1 [Eltanexor] | 429 | 371 |  | 345 | 469 | 406 |  |  |  |  |  |
| CC[C@H](C)n1cc(C)c2c(C(=O)NCc3c(C)cc(C)[nH]c3=O)cc(-c3ccc(N4CCNCC4)nc3)cc21 [GSK-126] | 499 | > 500 | > 500 | 458 | > 500 | > 500 |  |  |  |  |  |
| CC(=O)[C@]1(O)Cc2c(O)c3c(c(O)c2[C@@H](O[C@H]2C[C@H](N)[C@H](O)[C@H](C)O2)C1)C(=O)c1ccccc1C3=O [Idarubicin] | 273 | 143 | 313 | 234 | 373 | 215 |  |  |  |  |  |
